Measurements reported in EPA's ToxValDB 9.5 (doi:10.2903/j.efsa.2014.3692).
≈ marks a conversion by molar mass, not a printed value.

Legend:
[1] = system: Rattus norvegicus; details: for LD50: acute, mortality
[2] = system: Cyprinodon variegatus; details: mortality
[3] = system: Canidae; details: reproduction developmental; duration: 90 days; Dog Other; mortality
[4] = system: Bibionidae; details: chronic/long-term; duration: 28 days
[5] = system: Colinus virginianus; details: for LD50: acute, oral, mortality
[6] = system: Tagia sp.
[7] = system: Apis mellifera; details: acute, mortality
[8] = system: Mus musculus; details: acute; oral; mortality
[9] = system: Neomysis kadiakensis
[10] = system: Anas platyrhynchos
[11] = system: Chironomus tentans; details: acute, mortality

In the case of `CC(c1ccc(C(F)(F)F)nc1)S(C)(=O)=NC#N` (centres undefined) [Sulfoxaflor], the LD50 ([1]; oral) is reported as 1000 mg/kg, the NOAEL ([1]; chronic, duration: 2 years, other) is reported as 4.24 mg/kg-day and the NOAEL ([1]; repeat dose other, neurology) is reported as 25 mg/kg-day. The NOAEL ([1]; subchronic, duration: 90 days, oral, histopathology: nonneoplastic) was 6.36 mg/kg-day, the LC50 ([2]; acute, duration: 96 hours) was 266 µg/mL (≈ 959 µM) and the NOEC ([2]; chronic/long-term, duration: 38 days) was 1.21 mg/L. For the same molecule, the NOAEL [3] was 6.63 mg/kg-day, the NOEC [4] was 0.0384 mg/L and the LD50 ([5]; diet) was greater than 1150 mg/kg-day. The LD50 [5] was 676 mg/kg, the NOAEL ([5]; reproduction developmental, reproduction) was 84.4 mg/kg-day and the LC50 ([6]; acute, duration: 14 days, mortality) was 0.885 mg/kg. For the same molecule, the NOEC ([6]; chronic/long-term, duration: 8 weeks) was 0.1 mg/kg, the LD50 ([7]; duration: 48 hours, oral, unspecified) was 0.146 µg/piece and the LD50 ([7]; duration: 72 hours, dermal) was 0.379 µg/piece. For the same molecule, the LD50 [8] was 750 mg/kg, the LC50 ([9]; acute, duration: 96 hours, mortality) was 0.643 µg/mL (≈ 2.32 µM) and the NOEC ([9]; chronic/long-term, duration: 28 days, reproduction) was 0.114 mg/L. For the same molecule, the NOAEL ([10]; reproductive, reproduction) was 25.9 mg/kg-day, the LD50 ([10]; short-term, oral, feed, mortality) was greater than 1050 mg/kg-day and the LC50 ([11]; duration: 96 hours) was 0.622 µg/mL (≈ 2.24 µM). It also gave an LC50 ([11]; duration: 10 days) of 0.119 mg/kg.

`CC(O)c1ccc(C(F)(F)F)nc1` (centres undefined) [1-(6-(Trifluoromethyl)pyridin-3-yl)ethanol] was tested, and the LD50 [1] was 2000 mg/kg and the LD50 [5] was 1040 mg/kg.
